Counter-ions that a name gives are not always drawn.
Target: kinase domain of IRE1 alpha (His-tagged kinase dead construct KR, AA G547-L977, D688N) (Homo sapiens (Human), UniProt O75460, D688N)
Assay: IRE1α TR-FRET competition binding assay
Conditions: competition with Kinase Tracer 236, 0.1 μM; one hour at room temperature
Description: To determine the affinity of compound binding to the kinase domain of IRE1 alpha, a Time Resolved Fluorescence Resonance Energy Transfer (TR-FRET) competition assay was used. A His-tagged IRE1 alpha kinase dead construct containing the kinase and RNase domains (KR, AA G547-L977, D688N) was expressed in Sf9 insect cells. The purified protein (final concentration 0.006 μM micromolar) was pre-incubated with anti-His Europium labeled antibody (Life Technologies PV5596, final concentration 0.002 μM micromolar) for one hour at 4° C. in 1X TR-FRET Assay Buffer (50 mM HEPES, pH 7.5.10 mM MgCl2, 0.083 mM Brij 35, 1 mM DTT, and 0.1% bovine gamma globulin) prior to addition to test compounds. A fluorescent labeled probe based on an ATP competitive inhibitor (Kinase Tracer 236, Life Technologies PV5592) is added to a final concentration of 0.1 μM (micromolar). Reactions were carried out for one hour at room temperature in a final volume of 20 μL (microliter) in 384 well white ProxiPlates (Perkin Elmer 6008289). Binding of the tracer to the IRE1 protein alpha was detected in an Envision instrument (PerkinElmer) equipped with a TRF laser option and a LANCE/Delfia Dual/Bias D400/D630 mirror (Ex 347 nm, 1st Em 665 nm, 2nd Em 615 nm).
Exemplary compounds in Table A1 were tested in the IRE1α binding assays.

Chain of kinase domain of IRE1 alpha (His-tagged kinase dead construct KR, AA G547-L977, D688N) (O75460 547-977 D688N): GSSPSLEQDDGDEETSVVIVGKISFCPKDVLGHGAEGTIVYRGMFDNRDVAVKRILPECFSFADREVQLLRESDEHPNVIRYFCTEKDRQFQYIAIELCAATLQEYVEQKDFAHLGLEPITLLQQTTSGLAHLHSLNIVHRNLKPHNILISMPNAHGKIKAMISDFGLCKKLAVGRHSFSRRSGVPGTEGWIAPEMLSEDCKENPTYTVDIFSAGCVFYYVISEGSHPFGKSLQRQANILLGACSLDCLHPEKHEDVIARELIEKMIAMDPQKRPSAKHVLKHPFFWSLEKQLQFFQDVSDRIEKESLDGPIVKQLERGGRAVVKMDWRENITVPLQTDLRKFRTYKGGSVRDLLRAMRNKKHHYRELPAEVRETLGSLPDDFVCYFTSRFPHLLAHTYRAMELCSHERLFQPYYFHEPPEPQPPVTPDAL

Structure (SMILES) | IC50 [nM]
O=S(=O)(Cc1ccccc1)Nc1c(F)cc(Oc2ncccc2-c2ccnc(NC3CNCC4(C3)CC4(F)F)n2)c(F)c1F (single isomer, unassigned) [Compound 298, N-(4-((3-(2-((1,1-Difluoro-5-azaspiro[2.5]octan-7-yl)amino)pyrimidin-4-yl)pyridin-2-yl)oxy)-2,3,6-trifluorophenyl)-1-phenylmethanesulfonamide] | 1.8
CC(C)(F)C1CNCC(Nc2nccc(-c3cccnc3Oc3cc(F)c(NS(=O)(=O)Cc4ccccc4)c(F)c3F)n2)C1 (single isomer, unassigned) [Compound 334, 1-Phenyl-N-(2,3,6-trifluoro-4-((3-(2-((5-(2-fluoropropan-2-yl)piperidin-3-yl)amino)pyrimidin-4-yl)pyridin-2-yl)oxy)phenyl)methanesulfonamide hydrochloride] | 9.8
Cc1ccc(NS(=O)(=O)c2ccccc2Cl)cc1Oc1ncccc1-c1ccnc(N[C@H]2CCCNC2)n1 [Compound 135, (S)-2-Chloro-N-(4-methyl-3-((3-(2-(piperidin-3-ylamino)pyrimidin-4-yl)pyridin-2-yl)oxy)phenyl)benzenesulfonamide hydrochloride] | 41
O=S(=O)(CCC(F)(F)F)Nc1ccc(Oc2ncccc2-c2ccnc(N[C@H]3CCCNC3)n2)cc1F [Compound 105, (S)-3,3,3-trifluoro-N-(2-fluoro-4-((3-(2-(piperidin-3-ylamino)pyrimidin-4-yl)pyridin-2-yl)oxy)phenyl)propane-1-sulfonamide hydrochloride] | 27
N[C@H]1CC[C@H](Nc2nccc(-c3cccnc3Oc3ccc(NS(=O)(=O)Cc4ccccc4)c(F)c3F)n2)CC1 [Compound 169, N-(4-((3-(2-(((1r,4r)-4-Aminocyclohexyl)amino)pyrimidin-4-yl)pyridin-2-yl)oxy)-2,3-difluorophenyl)-1-phenylmethanesulfonamide] | 4.1
Cc1cc(NS(=O)(=O)C(C)c2ccccc2)c(F)c(F)c1Oc1ncccc1-c1ccnc(N[C@@H]2CNC[C@@H](F)C2)n1 (single isomer, unassigned) [Compound 314] | 0.24
O=S(=O)(Nc1ccc(F)c(Oc2ncccc2-c2ccnc(N[C@H]3CCCNC3)n2)c1)c1ccccc1Cl [Compound 128, (S)-2-Chloro-N-(4-fluoro-3-((3-(2-(piperidin-3-ylamino)pyrimidin-4-yl)pyridin-2-yl)oxy)phenyl)benzenesulfonamide] | 11
O=S(=O)(CC1(F)CC1)Nc1c(F)cc(Oc2ncccc2-c2ccnc(N[C@@H]3CNC[C@@H](F)C3)n2)c(F)c1F [Compound 261, 1-(l-Fluorocyclopropyl)-N-(2,3,6-trifluoro-4-((3-(2-(((3S,5S)-5-fluoropiperidin-3-yl)amino)pyrimidin-4-yl)pyridin-2-yl)oxy)phenyl)methanesulfonamide] | 3.5
O=S(=O)(Cc1ccccc1)Nc1ccc(Oc2ncccc2-c2ccnc(NC34CNCC3C4)n2)c(F)c1F (single isomer, unassigned) [Compound 186, N-(4-((3-(2-(3-Azabicyclo[3.1.0]hexan-5-ylamino)pyrimidin-4-yl)-2-pyridyl)oxy)-2,3-difluoro-phenyl)-1-phenyl-methanesulfonamide] | 20
C[C@@]1(F)CNC[C@@H](Nc2nccc(-c3cccnc3Oc3ccc(NS(=O)(=O)Cc4ccccc4)c(F)c3F)n2)C1 [Compound 174, N-(2,3-difluoro-4-((3-(2-(((3S,5S)-5-fluoro-5-methylpiperidin-3-yl)amino)pyrimidin-4-yl)pyridin-2-yl)oxy)phenyl)-1-phenylmethanesulfonamide] | 3.1
O=S(=O)(Cc1ccc(F)cc1)Nc1ccc(Oc2ncccc2-c2ccnc(N[C@H]3CCCNC3)n2)c(F)c1F [Compound 235, (S)-N-(2,3-difluoro-4-(3-(2-(piperidin-3-ylamino)pyrimidin-4-yl)pyridin-2-yloxy)phenyl)-1-(4-fluorophenyl)methanesulfonamide] | 4
CN(C)[C@H]1CC[C@H](Nc2nccc(-c3cccnc3Oc3cc(F)c(NS(=O)(=O)Cc4ccccc4)c(F)c3F)n2)CC1 [Compound 272, N-(4-((3-(2-(((1r,4r)-4-(Dimethylamino)cyclohexyl)amino)pyrimidin-4-yl)pyridin-2-yl)oxy)-2,3,6-trifluorophenyl)-1-phenylmethanesulfonamide hydrochloride] | 0.15
Cc1ccc(CS(=O)(=O)Nc2cc(F)c(Oc3ncccc3-c3ccnc(N[C@@H]4CNC[C@@](C)(F)C4)n3)c(C)c2F)cc1 [Compound 311, N-(2,5-Difluoro-4-((3-(2-(((3S,5S)-5-fluoro-5-methylpiperidin-3-yl)amino)pyrimidin-4-yl)pyridin-2-yl)oxy)-3-methylphenyl)-1-(p-tolyl)methanesulfonamide] | 0.29
CCCS(=O)(=O)Nc1cccc(Oc2ncccc2-c2ccnc(N[C@H]3CCCNC3)n2)c1F [Compound 144, (S)—N-(2-Fluoro-3-((3-(2-(piperidin-3-ylamino)pyrimidin-4-yl)pyridin-2-yl)oxy)phenyl)propane-1-sulfonamide hydrochloride] | 370
Cc1cc(NS(=O)(=O)Cc2ccccc2)c(F)c(F)c1Oc1ncccc1-c1ccnc(N[C@H]2CCCNC2)n1 [Compound 155, (S)-N-(2,3-difluoro-5-methyl-4-((3-(2-(piperidin-3-ylamino)pyrimidin-4-yl)pyridin-2-yl)oxy)phenyl)-1-phenylmethanesulfonamide] | 4.5
CCCS(=O)(=O)Nc1c(F)cc(Oc2ncccc2-c2ccnc(N[C@H]3CC[C@H](N(C)C)CC3)n2)c(F)c1F [Compound 309, N-(4-((3-(2-(((1r,4r)-4-(Dimethylamino)cyclohexyl)amino)pyrimidin-4-yl)pyridin-2-yl)oxy)-2,3,6-trifluorophenyl)propane-1-sulfonamide] | 1.1
O=S(=O)(CC1CCC1(F)F)Nc1c(F)cc(Oc2ncccc2-c2ccnc(N[C@@H]3CNC[C@@H](F)C3)n2)c(F)c1F (single isomer, unassigned) [Compound 265] | 1.4
O=S(=O)(Nc1ccc(Oc2ncccc2-c2ccnc(N[C@H]3CCCNC3)n2)c(F)c1F)C1c2ccccc2-c2ccccc21 [Compound 381, (S)—N-(2,3-Difluoro-4-((3-(2-(piperidin-3-ylamino)pyrimidin-4-yl)pyridin-2-yl)oxy)phenyl)-9H-fluorene-9-sulfonamide] | 1
O=S(=O)(Cc1ccccc1)Nc1ccc(Cl)c(Oc2ncccc2-c2ccnc(N[C@H]3CCCNC3)n2)c1F [Compound 138, (S)—N-(4-Chloro-2-fluoro-3-((3-(2-(piperidin-3-ylamino)pyrimidin-4-yl)pyridin-2-yl)oxy)phenyl)-1-phenylmethanesulfonamide] | 15
Cc1c(Oc2ncccc2-c2ccnc(N[C@@H]3CNC[C@H](C)C3)n2)cc(F)c(NS(=O)(=O)Cc2ccccc2)c1F [Compound 164, N-(2,6-Difluoro-3-methyl-4-((3-(2-(((3S,5R)-5-methyl-3-piperidyl)amino)pyrimidin-4-yl)-2-pyridyl)oxy)phenyl)-1-phenyl-methanesulfonamide] | 4
COCCS(=O)(=O)Nc1c(F)cc(Oc2ncccc2-c2ccnc(N[C@@H]3CNC[C@@H](F)C3)n2)c(F)c1F [Compound 252, 2-Methoxy-N-(2,3,6-trifluoro-4-((3-(2-(((3S,5S)-5-fluoropiperidin-3-yl)amino)pyrimidin-4-yl)pyridin-2-yl)oxy)phenyl)ethane-1-sulfonamide] | 14
Cc1c(NS(=O)(=O)Cc2ccccc2)cccc1Oc1ncccc1-c1ccnc(N[C@H]2CCCNC2)n1 [Compound 140, (S)—N-(2-Methyl-3-((3-(2-(piperidin-3-ylamino)pyrimidin-4-yl)pyridin-2-yl)oxy)phenyl)-1-phenylmethanesulfonamide hydrochloride] | 26
Cc1ccccc1CS(=O)(=O)Nc1c(F)cc(Oc2ncccc2-c2ccnc(N[C@@H]3CNC[C@@](C)(F)C3)n2)c(F)c1F [Compound 290, 1-o-Tolyl-N-(2,3,6-trifluoro-4-((3-(2-(((3S,5S)-5-fluoro-5-methylpiperidin-3-yl)amino)pyrimidin-4-yl)pyridin-2-yl)oxy)phenyl)methanesulfonamide] | 0.4
N#Cc1ccc(CS(=O)(=O)Nc2ccc(Oc3ncccc3-c3ccnc(N[C@H]4CCCNC4)n3)c(F)c2F)cc1 [Compound 250, (S)-1-(4-Cyanophenyl)-N-(2,3-difluoro-4-((3-(2-(piperidin-3-ylamino)pyrimidin-4-yl)pyridin-2-yl)oxy)phenyl)methanesulfonamide] | 4.9
CC(F)(F)C1CNCC(Nc2nccc(-c3cccnc3Oc3cc(F)c(NS(=O)(=O)Cc4ccccc4)c(F)c3F)n2)C1 (single isomer, unassigned) [Compound 338, N-(4-((3-(2-((5-(1, l-Difluoroethyl)piperidin-3-yl)amino)pyrimidin-4-yl)pyridin-2-yl)oxy)-2,3,6-trifluorophenyl)-1-phenylmethanesulfonamide] | 2.6
